The data set in a line: collision cross section in nitrogen (drift tube, single-field); higher = larger gas-phase ion size.
The mark [1] stands for this setting: ion type: [M+H], ion source: ESI, ion mode: Positive.
Where [2] appears, read: ion type: [M+Na], ion source: ESI, ion mode: Positive.
The mark [3] stands for this setting: ion type: [M-H], ion source: ESI, ion mode: Negative.
Setting [4] is: ion type: [M+H], ion source: APCI, ion mode: Positive.
[5] abbreviates: ion type: [M+], ion source: APCI, ion mode: Positive.
The mark [6] stands for this setting: ion source: ESI, ion mode: Positive, ion type: [M]+ (permanent cation).
Setting [7] is: ion source: APCI, ion mode: Positive, ion type: [M]+ (permanent cation).

37 molecules from the supplement of paper PMC12317010 can be followed below.

SMILES strings stand for the structures. Counter-ions that a name gives are not always drawn.
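Note: chemical standards at 10 µM analysed by drift tube IMS-QTOF MS in about 3.95 torr nitrogen, mean of duplicate injections differing ≤1%, mass error below 10 ppm.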

Turning to `Cc1cc(C2(c3ccc(O)c(C)c3)C(=O)Nc3ccccc32)ccc1O` [1,3-Dihydro-3,3-bis(4-hydroxy-m-tolyl)-2H-indol-2-one], the “collision cross section in nitrogen” value worked out at 185.4 Å² under setting [1], 196.6 Å² under setting [2] and 190.8 Å² under setting [3].
Take `CCCCCCOC(=O)c1ccccc1C(=O)OCCCCCC` [Dihexyl phthalate]: the “collision cross section in nitrogen” value under setting [2] came out at 202.6 Å².
`C=CC(=O)OCC(CO)(COCC(COC(=O)C=C)(COC(=O)C=C)COC(=O)C=C)COC(=O)C=C` [Dipentaerythritol pentaacrylate]: the “collision cross section in nitrogen” value under setting [2] is 217.9 Å².
Same read-out and setting: to `COC(=O)c1ccccc1S(=O)(=O)NC(=O)Nc1nc(OC(F)F)cc(OC(F)F)n1` [Primisulfuron-methyl] belongs 199.7 Å².
In the case of `Cc1cccc(C(C)(C)C)c1O` [2-tert-Butyl-6-methylphenol], the “collision cross section in nitrogen” value under setting [3] was 138.2 Å².
In the case of `CCCCCCCCCCCCNC(=N)N` [Dodecylguanidine acetate], under setting [4], the “collision cross section in nitrogen” value was determined as 175.2 Å².
As to `COc1ccc(Cl)cc1C(=O)NCCc1ccc(S(=O)(=O)NC(=O)NC2CCCCC2)cc1` [Glybenclamide], the “collision cross section in nitrogen” value runs as follows: under setting [1], 206.6 Å²; under setting [2], 217.6 Å²; under setting [3], 213.2 Å².
For the molecule `C[C@]12CC[C@H]3[C@@H](CC[C@@]45O[C@@H]4C(O)=C(C#N)C[C@]35C)[C@@H]1CC[C@@H]2O` [Trilostane], under setting [3], the “collision cross section in nitrogen” value is 186.2 Å².
Take `CC(C)OC(=O)C(C)N(C(=O)c1ccccc1)c1ccc(F)c(Cl)c1` (stereo not drawn) [Flamprop-isopropyl]: the “collision cross section in nitrogen” value under setting [4] came to 182.1 Å² and the “collision cross section in nitrogen” value under setting [2] came out at 193.4 Å².
Turning to `Cc1cc(O)c2c(c1)C(=O)c1cc(O)cc(O)c1C2=O` [Emodin], the “collision cross section in nitrogen” value under setting [3] was 154.6 Å².
With `CCCCOC(=O)CC(O)(CC(=O)OCCCC)C(=O)OCCCC` [Tributyl citrate], the “collision cross section in nitrogen” value under setting [2] is 202.7 Å².
With `CCCCCCC(CCCCCCCCCCC(=O)OCC(COC(C)=O)OC(C)=O)OC(C)=O` (stereo not drawn) [Grinstad Soft-N-Safe], the “collision cross section in nitrogen” value under setting [2] was 225.2 Å².
On to `COc1ccc(O)cc1` [4-Methoxyphenol], for which the “collision cross section in nitrogen” value under setting [5] is on record as 123.7 Å².
Turning to `CC1CNc2c(cccc2S(=O)(=O)N[C@@H](CCCNC(=N)N)C(=O)N2CC[C@@H](C)C[C@@H]2C(=O)O)C1` (stereo partly drawn) [Argatroban], the “collision cross section in nitrogen” value under setting [1] is given as 216.7 Å², the “collision cross section in nitrogen” value under setting [2] was 221.2 Å² and the “collision cross section in nitrogen” value under setting [3] came out at 207.5 Å².
As to `C=CC(=O)OCC(C)OCC(C)OCC(C)OC(=O)C=C` (stereo not drawn) [Tripropylene glycol diacrylate], under setting [2], the “collision cross section in nitrogen” value was determined as 169.9 Å².
For the molecule `CCCCOCCOCCOCCOCCO` [3,6,9,12-Tetraoxahexadecan-1-ol], the “collision cross section in nitrogen” value was determined as 157.1 Å² under setting [4] and 160.4 Å² under setting [2].
In the case of `COc1cc(C=O)cc2c1[C@H](COC(N)=O)[C@]1(OC(C)=O)ON2C[C@H]2[C@@H]1N2C(C)=O`, the “collision cross section in nitrogen” value worked out at 191.3 Å² under setting [4], 192.1 Å² under setting [1] and 190.5 Å² under setting [2].
Taken in the same sequence, the figures for `CN(C)P(=O)(N(C)C)N(C)C` [Hexamethylphosphoramide] were 134.4 Å², 135.3 Å² and 152.8 Å².
As to `CON(C)C(=O)Nc1ccc(Cl)c(Cl)c1` [Linuron], the “collision cross section in nitrogen” value under setting [3] was 151.1 Å².
`CCN(CC)c1ccc2c(-c3ccccc3C(=O)O)c3ccc(N(CC)CC)cc3[o+]c2c1` [Rhodamine B]: the “collision cross section in nitrogen” value under setting [6] is 218.1 Å².
Regarding `CC(C)C[C@H]1C(=O)N2CCC[C@H]2[C@]2(O)O[C@](NC(=O)[C@@H]3C=C4c5cccc6[nH]c(Br)c(c56)C[C@H]4N(C)C3)(C(C)C)C(=O)N12` [Bromocriptine mesylate], the “collision cross section in nitrogen” value was 242.9 Å² under setting [4], 247.4 Å² under setting [1], 248.5 Å² under setting [2] and 251.7 Å² under setting [3].
Consider `OCCNCc1ccccc1` [N-Benzylethanolamine], for which, under setting [1], the “collision cross section in nitrogen” value is recorded as 134.9 Å².
With `CC(Oc1ccc(Oc2ncc(C(F)(F)F)cc2Cl)cc1)C(=O)O` (stereo not drawn) [Haloxyfop], the “collision cross section in nitrogen” value is, setting by setting: under setting [1], 180 Å²; under setting [3], 190 Å².
For `CCCCCCCCCCCCCC[N+](C)(C)C` [Tetradonium bromide], the “collision cross section in nitrogen” value reads like this: under setting [7], 185.1 Å²; under setting [6], 185.7 Å².
As for `O=c1c(O)c(-c2ccc(O)cc2O)oc2cc(O)cc(O)c12` [Morin hydrate], the “collision cross section in nitrogen” value under setting [3] worked out at 164.1 Å².
Regarding `C=C(C)C(=O)OCCCCCCCCCCOC(=O)C(=C)C` [1,10-Decanediol dimethacrylate], the “collision cross section in nitrogen” value under setting [2] worked out at 184.9 Å².
For `OC(c1ccc(F)cc1)(c1cncnc1)c1ccccc1Cl` (stereo not drawn) [Nuarimol], the “collision cross section in nitrogen” value worked out at 171.6 Å² under setting [4], 171.2 Å² under setting [1] and 170.7 Å² under setting [3].
With `CCCCCCCCCC[N+](C)(C)CCCCCCCCCC` [Didecyldimethylammonium chloride], the “collision cross section in nitrogen” value turned out to be 208.2 Å² under setting [7] and 209.1 Å² under setting [6].
As to `CCOC(=O)Cn1c(=O)sc2cccc(Cl)c21` [Benazolin-ethyl], the “collision cross section in nitrogen” value under setting [2] is recorded as 165.4 Å².
Turning to `CCCCN(CCCC)C(=O)N(CCCC)CCCC` [1,1,3,3-Tetrabutylurea], the “collision cross section in nitrogen” value by setting is: under setting [4], 177.3 Å²; under setting [1], 177.9 Å²; under setting [2], 194 Å².
In the case of `O=C(O)c1ccccc1Nc1cccc(C(F)(F)F)c1` [Flufenamic acid], the “collision cross section in nitrogen” value under setting [5] came out at 157.7 Å² and the “collision cross section in nitrogen” value under setting [3] was found to be 160.9 Å².
Regarding `NC(=O)N1c2ccccc2CC(=O)c2ccccc21` [Oxcarbazepine], the “collision cross section in nitrogen” value is listed as 153.9 Å² under setting [4], 154.8 Å² under setting [1] and 162.4 Å² under setting [2].
Consider `CCCCCC[C@@H](O)C/C=C\CCCCCCCC(=O)O` [(9Z,12R)-12-Hydroxyoctadec-9-enoic acid], for which the “collision cross section in nitrogen” value runs as follows: under setting [2], 189.7 Å²; under setting [3], 178.6 Å².
Take `CO[C@@H]1COCC[C@@H]1N[C@@H]1CC[C@@](C(=O)N2CCc3ncc(C(F)(F)F)cc3C2)(C(C)C)C1` [MK-812]: the “collision cross section in nitrogen” value runs as follows: under setting [1], 214.6 Å²; under setting [2], 219.6 Å²; under setting [3], 207.8 Å².
For the molecule `Cc1ccc(O)cn1` [6-Methyl-3-hydroxypyridine], the “collision cross section in nitrogen” value runs as follows: under setting [4], 118.1 Å²; under setting [1], 119.4 Å²; under setting [3], 120.4 Å².
In the case of `c1ccc(CN(Cc2ccccc2)Cc2ccccc2)cc1` [Tribenzylamine], the “collision cross section in nitrogen” value is, setting by setting: under setting [4], 169.1 Å²; under setting [1], 169.2 Å².
Take `Oc1ccc2c(c1)-c1ccccc1C2` [3-Hydroxyfluorene]: the “collision cross section in nitrogen” value under setting [3] amounted to 142.4 Å².
